Here are results for eleven molecules from ChEMBL document CHEMBL4270495, “Oleanane-, ursane-, and quinone methide friedelane-type triterpenoid derivatives: Recent advances in cancer treatment” (Eur J Med Chem, 2017).

The subject of assay [1] is HT-29. Description: Cytotoxicity in human HT-29 cells assessed as reduction in cell viability incubated for 96 hrs by SRB assay. Format: functional, cell-based. Particulars: HT-29, 96 h. In general terms: Sulforhodamine B stains cellular protein and so reports cell mass.
For assay [2], the system named is A549. Description: Cytotoxicity in human A549 cells assessed as reduction in cell viability incubated for 96 hrs by SRB assay. It is filed as functional, cell-based. As to conditions: A549, 96 h.
The subject of assay [3] is B16-F10. Put plainly: Cytotoxicity in mouse B16F10 cells assessed as reduction in cell viability incubated for 72 hrs by MTT assay. It is filed as functional, cell-based. Particulars: B16-F10, 72 h. In general terms: Tetrazolium assays rely on reduction of a dye to a coloured formazan, in cell work by metabolically active cells.
The subject of assay [4] is HepG2. Description: Cytotoxicity in human HepG2 cells assessed as reduction in cell viability incubated for 72 hrs by MTT assay. Format: functional, cell-based. Particulars: HepG2, 72 h.
Assay [5] deals with HT-29. Put plainly: Cytotoxicity in human HT-29 cells assessed as reduction in cell viability incubated for 72 hrs by MTT assay. It is filed as functional, cell-based. As to conditions: HT-29, 72 h.
For assay [6], the system named is A549. Put plainly: Cytotoxicity in human A549 cells assessed as reduction in cell viability incubated for 72 hrs by CCK8 assay. Particulars: A549, 72 h. It is filed as functional, cell-based.
The subject of assay [7] is PC-3. Put plainly: Cytotoxicity in human PC3 cells assessed as reduction in cell viability incubated for 72 hrs by CCK8 assay. Format: functional, cell-based. As to conditions: PC-3, 72 h.
The test system of assay [8] is HeLa. Put plainly: Cytotoxicity in human HeLa cells assessed as reduction in cell viability incubated for 72 hrs by CCK8 assay. It is filed as functional, cell-based.
The test system of assay [9] is HepG2. Put plainly: Cytotoxicity in human HepG2 cells assessed as reduction in cell viability incubated for 72 hrs by CCK8 assay. Format: functional, cell-based. As to conditions: HepG2, 72 h.
Assay [10] relates to MCF7. Put plainly: Cytotoxicity in human MCF7 cells assessed as reduction in cell viability incubated for 72 hrs by CCK8 assay. It is filed as functional, cell-based. Particulars: MCF7, 72 h.
Assay [11] relates to SGC-7901. Put plainly: Cytotoxicity in human SGC7901 cells assessed as reduction in cell viability incubated for 72 hrs by CCK8 assay. Format: functional, cell-based. As to conditions: SGC-7901, 72 h.
The nature of assay [12]: Cytotoxicity in human […] cells assessed as reduction in cell viability incubated for 72 hrs by MTT assay. It is filed as functional, cell-based.
The test system of assay [13] is BGC-823. Put plainly: Cytotoxicity in human BGC823 cells assessed as reduction in cell viability. Format: functional, cell-based.
The test system of assay [14] is HeLa. Description: Cytotoxicity in human HeLa cells assessed as reduction in cell viability. Format: functional, cell-based.
The subject of assay [15] is HepG2. Description: Cytotoxicity in human HepG2 cells assessed as reduction in cell viability incubated for 48 hrs by MTT assay. It is filed as functional, cell-based. Particulars: HepG2, 48 h.
For assay [16], the system named is HeLa. Put plainly: Cytotoxicity in human HeLa cells assessed as reduction in cell viability incubated for 48 hrs by MTT assay. It is filed as functional, cell-based.
In assay [17] the test system is BGC-823. Description: Cytotoxicity in human BGC823 cells assessed as reduction in cell viability incubated for 48 hrs by MTT assay. It is filed as functional, cell-based. As to conditions: BGC-823, 48 h.
For assay [18], the system named is T-24. Put plainly: Cytotoxicity in human T24 cells assessed as reduction in cell viability incubated for 48 hrs by MTT assay. It is filed as functional, cell-based. Particulars: T-24, 48 h.
Assay [19] deals with MDA-MB-231. Description: Cytotoxicity in human MDA-MB-231 cells assessed as reduction in cell viability incubated for 48 hrs by SRB assay. It is filed as functional. As to conditions: MDA-MB-231, 48 h.
For assay [20], the system named is HUVEC. Description: Cytotoxicity in HUVEC cells assessed as reduction in cell viability incubated for 48 hrs by MTT assay. As to conditions: Homo sapiens. It is filed as cell-based.
Assay [21] deals with MCF7. Description: Cytotoxicity in human MCF7 cells assessed as reduction in cell viability incubated for 48 hrs by SRB assay. Format: functional, cell-based. Particulars: MCF7, 48 h.
The subject of assay [22] is A549. Description: Cytotoxicity in human A549 cells assessed as reduction in cell viability incubated for 48 hrs by MTT assay. As to conditions: A549, 48 h. Format: functional, cell-based.
Assay [23] can be described thus: Cytotoxicity in human SPCA2 cells assessed as reduction in cell viability incubated for 48 hrs by MTT assay. Format: functional, cell-based. Particulars: SPCA2, 48 h.

pIC50: −log10 of the molar value.

As to `COC(=O)[C@]12CCC(C)(C)C[C@H]1C1=CC[C@@H]3[C@@]4(C)C[C@@H](OS(N)(=O)=O)[C@H](O)C(C)(C)[C@@H]4CC[C@@]3(C)[C@]1(C)CC2`, the pIC50 was 5.12 in assay [1] and 5.19 in [2].
On to `CC(=O)O[C@@H]1C[C@]2(C)[C@H]3CC=C4[C@@H]5CC(C)(C)CC[C@]5(C(=O)NCCCCCCCCCCC(=O)O)CC[C@@]4(C)[C@]3(C)CC[C@H]2C(C)(C)[C@H]1OC(C)=O`, for which the pIC50 in [3] is 5.62; in assay [4], 4.85; in assay [5] it was 5.51.
As to `COC(=O)C(C)NC(=O)[C@]12CC[C@@H](C)[C@H](C)[C@H]1C1=CC[C@@H]3[C@@]4(C)C[C@@H](OC(C)=O)[C@H](OC(C)=O)[C@@](C)(COC(C)=O)[C@@H]4CC[C@@]3(C)[C@]1(C)CC2` (some centres not stated), the pIC50 in assay [6] was 5.51; in [7] it was 5.00; in assay [8], 5.29; in [9], 6.52; in assay [10], 5.41; in assay [11], 5.04.
Take `C[C@H]1[C@H](C)CC[C@]2(C(=O)OCc3ccccc3)CC[C@]3(C)C(=CC[C@@H]4[C@@]5(C)CC[C@H](OC(=O)CCC(=O)O)C(C)(C)[C@@H]5CC[C@]43C)[C@H]12`: the pIC50 in assay [12] is 5.09.
Turning to `CC(=O)O[C@H]1CC[C@]2(C)[C@H]3CC=C4[C@@H]5[C@@H](C)[C@H](C)CC[C@]5(C(=O)N5CCOCC5)CC[C@@]4(C)[C@]3(C)CC[C@H]2C1(C)C`, the pIC50 was less than 5.00 in assay [13] and 5.66 in [14].
For `CC(=O)O/N=C1\CC[C@]2(C)[C@H]3CC=C4[C@@H]5[C@@H](C)[C@H](C)CC[C@]5(C(=O)Nc5ccccc5)CC[C@@]4(C)[C@]3(C)CC[C@H]2C1(C)C`, the results for the pIC50 in assay [15], in assay [16] and in assay [17] were 4.67, 5.03 and 5.09, respectively.
For `CCCC(=O)O[C@@H]1C[C@]2(C)[C@H]3CC=C4[C@@H]5CC(C)(C)CC[C@]5(C(=O)NCCCCCCCCCCC(=O)O)CC[C@@]4(C)[C@]3(C)CC[C@H]2C(C)(C)[C@H]1OC(=O)CCC`, the pIC50 in assay [3] is 5.24; in [4], 4.56; in assay [5], 5.86.
`COC(=O)C1CCCN1C(=O)[C@]12CC[C@@H](C)[C@H](C)[C@H]1C1=CC[C@@H]3[C@@]4(C)C[C@@H](OC(C)=O)[C@H](OC(C)=O)[C@@](C)(COC(C)=O)[C@@H]4CC[C@@]3(C)[C@]1(C)CC2` (some centres not stated): the pIC50 in assay [6] was 5.62; in [7] it was 5.04; in [8] it was 5.32; in assay [9], 6.05; in assay [10] it was 5.35; in assay [11], 5.34.
For `CC(=O)O/N=C1\CC[C@]2(C)[C@H]3CC=C4[C@@H]5[C@@H](C)[C@H](C)CC[C@]5(C(=O)Nc5ccccc5C(=O)O)CC[C@@]4(C)[C@]3(C)CC[C@H]2C1(C)C`, the pIC50 in assay [15] is 4.63; in assay [16], 4.86; in assay [17], 5.04.
Regarding `CCCC(=O)O[C@H]1CC[C@]2(C)[C@H]3CC=C4[C@@H]5[C@@H](C)[C@H](C)CC[C@]5(C(=O)N5CCOCC5)CC[C@@]4(C)[C@]3(C)CC[C@H]2C1(C)C`, the pIC50 in assay [13] was 5.01; in [14], less than 5.00.
For `C[C@H]1[C@H](C)CC[C@]2(C(=O)O)CC[C@]3(C)C(=CC[C@@H]4[C@@]5(C)C[C@@H](O)[C@H](O)[C@@](C)(CO)[C@@H]5CC[C@]43C)[C@H]12` [ASIATIC ACID], the pIC50 is 4.47 in [18]; 4.73 in assay [6]; 4.27 in assay [7]; 4.26 to 5.40 in [8]; less than 4.00 in [20]; 4.42 in assay [22]. Moreover, the pIC50 is 4.48 in assay [10], 4.40 in assay [23] and 4.43 in [11]. In addition, the GI50 is 18.1 µM in assay [19] and 19.1 µM in assay [21].

As a reminder, the pIC50 is the negative decadic logarithm of the IC50, by convention in mol/L. For orientation: GI50 means the concentration at which growth is held to half of that of the control.
